This data set in a line: Hygroscopicity of the Hydrochloride (weight gain at 75% relative humidity). The settings on record: 43 days. The format is physicochemical.

The source of these data is US7074811B2 (SmithKline Beecham p.l.c., priority 2000, dated 2006).

Regarding `CN(CCOc1ccc(CC2SC(=O)NC2=O)cc1)c1ccccn1.Cl` (centres unmarked) [Hydrochloride, 5-[4-[2-(N-methyl-N-(2-pyridyl)amino)ethoxy]benzyl]thiazolidine-2,4-dione hydrochloride], under “75% relative humidity at 21° C.”, the hygroscopicity classification result is given as “non-hygroscopic (<2%)”. Under “75% relative humidity atmosphere at 21° C., constant weight attained, sample of Example 1”, this molecule showed a percentage weight gain of 0.4%.
